Reference: the METLIN SMRT retention time set (Domingo-Almenara et al. 2019)
Each block holds one compound with its values, some of them ahead of it.

Assay: gradient 5% acetonitrile 3 min, to 50% in 2 min, to 85% in 15 min, held 3 min, 100 µL/min
Settings: column: Zorbax Extend-C18 2.1 x 50 mm; eluents: water / acetonitrile, 0.1% formic acid
How it was run: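 Over 3 months, pure standards in mixtures of ~100 molecules were run by HPLC coupled to a quadrupole time-of-flight mass spectrometer in positive and negative ionization mode. The column was a Zorbax Extend-C18 (2.1 × 50 mm, 1.8 μm) at 100 μL/min, eluted with water and acetonitrile each holding 0.1% formic acid, with 40 μL dead and 900 μL dwell volumes. Retention time was determined from adduct peaks chosen by software and checked manually.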

Compound: CC(C)N1C(=O)C2(CCCCC2)C1C(=O)N1CCCCC1 (stereo unspecified)
RP-LC retention time: 722 s

Compound: CC(=O)N1CCCSc2ccc(S(=O)(=O)N(C)c3ccc(C)cc3)cc21
RP-LC retention time: 937 s

Compound: Cc1ccc(C)c(S(=O)(=O)N2CCC3(CC2)NCCN=C3NCc2cc(F)cc(F)c2)c1
RP-LC retention time: 774 s

Compound: COC(=O)c1cc(S(=O)(=O)N2CCCC2C(=O)Nc2ccc(Br)c(C)c2)cn1C (stereo unspecified)
RP-LC retention time: 1010 s

Compound: O=C(NC1CC1)C1CCCN(c2ncnc3c2nc2n3CCCCC2)C1 (stereo unspecified)
RP-LC retention time: 622 s

Compound: COc1cc(OC)cc(C(=O)Nc2ccc(N3CCN(C4CCCCC4)C3=O)nc2)c1
RP-LC retention time: 889 s

Compound: Cc1cc(C)cc(N2C=NS(=O)(=O)c3cccnc32)c1
RP-LC retention time: 837 s

Compound: CCN1CCN(C(=O)c2nc(N(CC)CC)c3c(C)cc(C)nc3n2)CC1
RP-LC retention time: 550 s

Compound: O=C(NCC1CCCO1)c1ccc([N+](=O)[O-])cc1Cl (stereo unspecified)
RP-LC retention time: 664 s

Compound: COc1ccc(C)c(N2C(=O)CC(N3CCC(C(N)=O)CC3)C2=O)c1 (stereo unspecified)
RP-LC retention time: 586 s

Compound: O=C(Nc1ccc(F)c(F)c1)C1CCCN(S(=O)(=O)Cc2ccc(F)cc2)C1 (stereo unspecified)
RP-LC retention time: 990 s

Compound: O=C(NCc1ccco1)C1CCN(C(=O)c2ncn3c2COC(c2ccc(Cl)cc2)C3)CC1 (stereo unspecified)
RP-LC retention time: 753 s

Compound: Cc1noc([C@@H]2CN(C(=O)c3ccc(Br)o3)C[C@H]2CO)n1
RP-LC retention time: 657 s

Compound: O=C(Nc1ccc2c(c1)OCCO2)C1CCCN(c2nnc3c(Cl)cccn23)C1 (stereo unspecified)
RP-LC retention time: 709 s

Compound: COc1cccc(CNC(=O)N2CCCCC2c2nncn2C)c1 (stereo unspecified)
RP-LC retention time: 625 s

Compound: CCOC(=O)N1CCC(N2CCCC(COc3ccccc3C(=O)N3CCCC3)C2)CC1 (stereo unspecified)
RP-LC retention time: 612 s

Compound: CN1CCN(c2cc(C(=O)O)c3cc(F)ccc3n2)CC1
RP-LC retention time: 551 s

Compound: O=C(Cn1nc(S(=O)(=O)c2cccc(F)c2)ccc1=O)N1CCN(c2ccc(F)cc2)CC1
RP-LC retention time: 882 s

Compound: Cc1cc(OCC(=O)N[C@@H](C)C(=O)O)c2c3c(c(=O)oc2c1)CCCC3
RP-LC retention time: 746 s

Compound: CCOC(=O)c1[nH]c(C)c(CCC(=O)N2CCC(C(=O)NCc3cccc(OC)c3)CC2)c1C
RP-LC retention time: 773 s

Compound: Cc1sc(NC(=O)C2CCCCC2)nc1-c1ccc2c(c1)NC(=O)CO2
RP-LC retention time: 921 s

Compound: O=C(NC1CC1)c1ccc(OCC2CCCN(C(=O)c3cc(F)ccc3F)C2)cc1 (stereo unspecified)
RP-LC retention time: 820 s

Compound: O=C(Nc1ccccc1)N1CCc2nnc(C3CC3)n2CC1
RP-LC retention time: 596 s

Compound: COCc1nc(C2CCN(S(=O)(=O)c3ccc4c(c3)CCC4)C2)no1 (stereo unspecified)
RP-LC retention time: 928 s

Compound: COc1ccc(NC(=O)Cn2cnc3nc4c(cc3c2=O)CCCC4)c(OC)c1
RP-LC retention time: 709 s

Compound: Cc1cc2nc(C(=O)Nc3ccc(F)c(C)c3)cc(C)n2n1
RP-LC retention time: 1010 s

Compound: O=C(c1ccc2c(c1)OCO2)N1CCN(c2ncnc3c2CCC3)CC1
RP-LC retention time: 588 s

Compound: CC1CCN(S(=O)(=O)c2ccc(-c3nnc(C(=O)NCCN4CCCC4)o3)cc2)CC1
RP-LC retention time: 686 s

Compound: COc1ccc(C(=O)NC2CCN(c3cc(-c4cccs4)[nH]n3)C2)cc1F (stereo unspecified)
RP-LC retention time: 720 s

Compound: CCOC(=O)C1=C(CN2CCCCCC2)NC(=O)NC1c1ccc(OC(C)C)cc1 (stereo unspecified)
RP-LC retention time: 679 s

Compound: COCCOc1ccc(C(=O)N2CCNC(=O)C2CC(=O)OC2CCCCC2)cc1 (stereo unspecified)
RP-LC retention time: 720 s

The remaining lines, values ahead:

RP-LC retention time: 666 s
Compound: CCC1CCCCN1C(=O)c1cnc2nc(C)ccc2c1Nc1ccc2c(c1)OCCO2 (stereo unspecified)

RP-LC retention time: 1140 s
Compound: COc1ccc(-c2nc(-c3ccc(S(=O)(=O)N4CCCC4)cc3)no2)cc1

RP-LC retention time: 804 s
Compound: CCCn1cc(CCNS(=O)(=O)c2cccc(Cl)c2)c2cccnc21

RP-LC retention time: 546 s
Compound: NC(=O)c1cc(=O)[nH]c2ccccc12

RP-LC retention time: 914 s
Compound: COc1ccccc1C(=O)Nc1nnc(SCc2nnc(-c3ccccc3)o2)s1

RP-LC retention time: 1140 s
Compound: COc1ccc(-c2noc(C3(NC(=O)c4ccc(OC)c(F)c4)CCCCC3)n2)cc1

RP-LC retention time: 1110 s
Compound: COc1cc(NC(=O)Nc2nccn(-c3ccc(C(C)C)cc3)c2=O)cc(OC)c1

RP-LC retention time: 635 s
Compound: O=C(Cc1nc(-c2ccccn2)n[nH]1)Nc1cccc(F)c1

RP-LC retention time: 644 s
Compound: O=C(NCc1ccccn1)C1CCN(C(=O)c2ncn3c2COC(c2ccc(Cl)cc2)C3)CC1 (stereo unspecified)

RP-LC retention time: 673 s
Compound: COc1ccccc1CCNC(=O)C1CN(C(=O)c2c[nH]c3ccccc23)C1

RP-LC retention time: 778 s
Compound: CCCSCCCNC(=O)Cn1cnc2nc3c(cc2c1=O)CC(C)CC3 (stereo unspecified)

RP-LC retention time: 895 s
Compound: CCN1C=C(C(=O)OCc2ccccc2F)C(C)=NS1(=O)=O

RP-LC retention time: 903 s
Compound: O=C(Cn1nc(C(=O)N2CCCC2)c2ccccc21)Nc1cccc(Br)c1

RP-LC retention time: 1140 s
Compound: COc1ccc(S(=O)(=O)N2CCc3nc(-c4ccc(F)cc4)ncc3C2)cc1Cl

RP-LC retention time: 703 s
Compound: Cc1nc(S(=O)(=O)N2CCc3c(c(-c4nnc(-c5ccc(F)cc5)o4)nn3C)C2)cn1C

RP-LC retention time: 1100 s
Compound: CCCCCn1c(=O)c2ccccc2n(Cc2nc(-c3cccc(Cl)c3)no2)c1=O

RP-LC retention time: 635 s
Compound: CC(C)CN1CCN(Cc2nc(-c3ccc(N4CCSCC4)nc3)no2)CC1

RP-LC retention time: 928 s
Compound: CCc1noc(-c2cc(=O)n(CC(=O)NCc3ccc(SC)cc3)c3ccccc23)n1

RP-LC retention time: 682 s
Compound: Cc1nnc2c(=O)n(CC(=O)N3CCN(c4ccccc4)CC3)c3cccnc3n12

RP-LC retention time: 766 s
Compound: Cc1ccc(Nc2c(-c3ccc(C(=O)O)cc3)nc3cnccn23)cc1

RP-LC retention time: 832 s
Compound: c1ccc(CNc2cc(-n3cccn3)ncn2)cc1

RP-LC retention time: 675 s
Compound: CCN(CC)S(=O)(=O)c1ccc2nc(N3CCN(c4ccccn4)CC3)cnc2c1

RP-LC retention time: 783 s
Compound: COc1ccc(CCNc2ncnc3c2cnn3-c2ccccc2)cc1OC

RP-LC retention time: 960 s
Compound: COc1ccc(-c2nc(-c3cn(-c4ccc(F)cc4)nn3)no2)cc1OC

RP-LC retention time: 645 s
Compound: CCc1nnc(C2CN(C)CC23CCN(S(=O)(=O)c2cccc(Cl)c2)CC3)o1 (stereo unspecified)

RP-LC retention time: 605 s
Compound: O=C(c1ccnc(-c2cccs2)c1)N1CCN(c2ccccn2)CC1

RP-LC retention time: 1340 s
Compound: COc1ccccc1Nc1nc(-c2ccc(Br)cc2)cs1

RP-LC retention time: 1280 s
Compound: O=S(=O)(c1ccc(-c2noc(-c3cccc(F)c3)n2)cc1)N1CCCCC1

RP-LC retention time: 1200 s
Compound: CCOC(=O)c1ccc(NC(=O)Cn2nc(N3CCCC(C)C3)c3ccccc3c2=O)cc1 (stereo unspecified)

RP-LC retention time: 639 s
Compound: CCc1cc(=O)n(CC(=O)Nc2ccccc2C)c(N)n1

RP-LC retention time: 865 s
Compound: Cc1nc(-c2ccccc2)cc2nn(CC(=O)NC3CCCC3)c(=O)n12

RP-LC retention time: 1280 s
Compound: CCNC(=O)NS(=O)(=O)c1sc(CC(C)C)cc1-c1ccc(Cn2c(-c3ccccc3)nc(OC)c2C=O)cc1

RP-LC retention time: 712 s
Compound: O=C(NCC1CC1)c1cn(C2CN(C(=O)CCc3c[nH]c4ccccc34)C2)nn1

RP-LC retention time: 997 s
Compound: Cc1ccc(-n2cc3c(c(C(=O)NCCCOC(C)C)c2=O)CC(C)(C)CC3=O)cc1

RP-LC retention time: 776 s
Compound: Cc1cccc(-c2ncccc2CNS(=O)(=O)c2cc(F)cc(F)c2)c1
